Experimental data published in patent US12723063B2, “GIPR-agonist compounds” (Eli Lilly and Company, priority 2019, dated 2026).
*1 amine or outer side, *2 acyl side, *3 side chain or, on linkers, in order; H or OH if unused. Where a SMILES comes first, the peptide text is derived from it. Side-chain parts run from the residue outwards. [ ]: non-standard residue; d: D form. The star is where a group is joined. C20 diacid = O=C(O)CCCCCCCCCCCCCCCCCCC(=O)*; γGlu = O=C(O)[C@H](CCC(=O)[*:2])N[*:1]; AEEA = NCCOCCOCC(=O)O; Aib = CC(C)(N)C(=O)O

Columns and labels:
[1] = target: T1, human GLP-1 receptor (GLP-1R) (Homo sapiens, UniProt P43220); assay: cAMP functional assay (HTRF) in HEK293 cells in presence of 0.1% casein; assay type: cell-based; details: HEK293 cells expressing human GLP-1R, geometric mean, read-out: hGLP1R cAMP Rel EC50 nM (SEM, n)
T1 construct: expressed in transfected cells; host or cells: HEK293
T1 sequence (P43220 24-463): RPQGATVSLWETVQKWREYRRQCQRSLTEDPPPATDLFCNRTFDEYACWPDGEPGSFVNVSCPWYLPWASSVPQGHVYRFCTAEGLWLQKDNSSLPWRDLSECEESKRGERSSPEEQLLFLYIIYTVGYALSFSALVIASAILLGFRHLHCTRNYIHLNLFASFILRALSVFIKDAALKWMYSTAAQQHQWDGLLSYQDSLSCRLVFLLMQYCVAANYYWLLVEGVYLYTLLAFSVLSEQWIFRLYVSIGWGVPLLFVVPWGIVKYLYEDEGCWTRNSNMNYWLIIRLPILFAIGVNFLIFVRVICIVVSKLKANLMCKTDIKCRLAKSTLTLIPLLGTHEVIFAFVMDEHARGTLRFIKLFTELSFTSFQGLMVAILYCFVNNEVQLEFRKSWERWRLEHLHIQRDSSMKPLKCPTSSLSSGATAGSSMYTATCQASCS

human GcgR = target: T2, human GcgR (Homo sapiens, UniProt P47871); assay: [125I]-Glucagon binding, SPA with WGA beads, 0.1% bacitracin; details: geometric mean, read-out: hGcgR Ki
T2 construct: expressed in transfected cells; crude membranes
T2 sequence (P47871 26-477): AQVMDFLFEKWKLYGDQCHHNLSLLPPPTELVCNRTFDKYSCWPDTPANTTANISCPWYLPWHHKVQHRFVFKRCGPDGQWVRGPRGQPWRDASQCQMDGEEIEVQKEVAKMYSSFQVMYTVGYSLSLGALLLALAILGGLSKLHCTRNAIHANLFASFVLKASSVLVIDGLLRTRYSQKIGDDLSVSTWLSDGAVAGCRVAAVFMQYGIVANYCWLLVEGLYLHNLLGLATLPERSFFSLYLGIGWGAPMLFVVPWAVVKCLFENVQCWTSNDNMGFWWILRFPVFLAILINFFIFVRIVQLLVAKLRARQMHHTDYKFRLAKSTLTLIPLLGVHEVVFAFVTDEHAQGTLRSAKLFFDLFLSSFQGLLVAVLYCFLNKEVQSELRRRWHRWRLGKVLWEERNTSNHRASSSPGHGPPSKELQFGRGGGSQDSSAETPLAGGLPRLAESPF
Experimental: Stably transfected cell lines are prepared by subcloning receptor cDNA into a pcDNA3 expression plasmid and transfected into human embryonic kidney (HEK) 293 (hGcgR and hGLP-1R) or Chinese Hamster Ovary (CHO) (hGIPR) cells followed by selection with Geneticin (hGLP-1R and hGIPR) or hygromycin B (hGcgR).
Two methods are used for the preparation of crude cell membranes.
Method 1: Frozen cell pellets are lysed on ice in hypotonic buffer containing 50 mM Tris HCl, pH 7.5, and Roche Complete™ Protease Inhibitors with EDTA. The cell suspension is disrupted using a glass Potter-Elvehjem homogenizer fitted with a Teflon® pestle for 25 strokes. The homogenate is centrifuged at 4° C. at 1100× g for 10 minutes. The supernatant is collected and stored on ice while the pellets are resuspended in homogenization buffer and rehomogenized as described above. The homogenate is centrifuged at 1100× g for 10 minutes. The second supernatant is combined with the first supernatant and centrifuged at 35000× g for 1 hour at 4° C. The resulting membrane pellet is resuspended in homogenization buffer containing protease inhibitors at approximately 1 to 3 mg/mL, quick frozen in liquid nitrogen and stored as aliquots in a −80° C. freezer until use.
Method 2: Frozen cell pellets are lysed on ice in hypotonic buffer containing 50 mM Tris HCl, pH 7.5, 1 mM MgCl2, Roche Complete™ EDTA-free Protease Inhibitors and 25 units/mL DNAse I (Invitrogen). The cell suspension is disrupted using a glass Potter-Elvehjem homogenizer fitted with a Teflon® pestle for 20 to 25 strokes. The homogenate is centrifuged at 4° C. at 1800× g for 15 minutes. The supernatant is collected and stored on ice while the pellets are resuspended in homogenization buffer (without DNAse I) and rehomogenized as described above. The homogenate is centrifuged at 1800× g for 15 minutes. The second supernatant is combined with the first supernatant and centrifuged an additional time at 1800× g for 15 minutes. The overall supernatant is then centrifuged at 25000× g for 30 minutes at 4° C. The resulting membrane pellet is resuspended in homogenization buffer (without DNAse I) containing protease inhibitors at approximately 1 to 3 mg/mL and stored as aliquots in a −80° C. freezer until use.
The human Geg receptor binding assays are performed using a Scintillation Proximity Assay (SPA) format with wheat germ agglutinin (WGA) beads (Perkin Elmer). The binding buffer contains 25 mM 4-(2-hydroxyethyl)-1-piperazineethanesulfonic acid (HEPES), pH 7.4, 2.5 mM CaCl2), 1 mM MgCl2, 0.1% (w/v) bacitracin (Research Products), 0.003% (w/v) Polyoxyethylenesorbitan monolaurate (TWEEN®-20), and Roche Complete™ Protease Inhibitors without EDTA. Peptides and Gcg are thawed and 3-fold serially diluted in 100% DMSO (10 point concentration response curves). Next, 5 μL serially diluted compound or DMSO is transferred into Corning® 3632 clear bottom assay plates containing 45 μL assay binding buffer or unlabeled Gcg control (non-specific binding or NSB, at 1 μM final). […] Plates are sealed and mixed on a plate shaker (setting 6) for 1 minute and read with a PerkinElmer Trilux MicroBeta® scintillation counter after 12 hours of incubation/settling time at room temperature.
Data are analyzed using four-parameter (curve maximum, curve minimum, IC50, Hill slope) nonlinear regression routines (Genedata Screener, version 12.0.4, Genedata AG, Basal, Switzerland). […] Values for Ki are reported as the geometric mean, with error expressed as the standard error of the mean (SEM) and n is equal to the number of independent replicates (determined in assays performed on different days). […] SEM is only calculated when […] or greater. Means are expressed as geometric means with the standard error of the mean (SEM) and the number of replicates (n) indicated in parentheses.

Structure (SMILES) | EC50 [1] [nM] | Ki (human GcgR) [nM]
CC[C@H](C)[C@H](NC(=O)[C@H](CO)NC(=O)[C@H](Cc1ccc(O)cc1)NC(=O)[C@H](CC(=O)O)NC(=O)[C@H](CO)NC(=O)[C@@H](NC(=O)[C@H](Cc1ccccc1)NC(=O)[C@@H](NC(=O)CNC(=O)[C@H](CCC(=O)O)NC(=O)[C@@H](C)NC(=O)[C@@H](N)Cc1ccc(O)cc1)[C@@H](C)O)[C@@H](C)CC)C(=O)N[C@@H](CC(C)C)C(=O)N[C@@H](CC(C)C)C(=O)N[C@@H](CC(=O)O)C(=O)N[C@@H](CCCCN)C(=O)N[C@@H](CCCCNC(=O)COCCOCCNC(=O)COCCOCCNC(=O)CC[C@H](NC(=O)CCCCCCCCCCCCCCCCCCC(=O)O)C(=O)O)C(=O)N[C@@H](Cc1c[nH]cn1)C(=O)N[C@@H](CCC(N)=O)C(=O)NC(C)(C)C(=O)N[C@@H](CC(=O)O)C(=O)N[C@@H](Cc1ccccc1)C(=O)N[C@H](C(=O)N[C@@H](CC(N)=O)C(=O)N[C@@H](Cc1c[nH]c2ccccc12)C(=O)N[C@@H](CC(C)C)C(=O)N[C@@H](CC(C)C)C(=O)N[C@@H](C)C(=O)N[C@@H](CCC(N)=O)C(=O)NCC(=O)N1CCC[C@H]1C(=O)N[C@@H](CO)C(=O)N[C@@H](CO)C(=O)NCC(=O)N[C@@H](C)C(=O)N1CCC[C@H]1C(=O)N1CCC[C@H]1C(=O)N1CCC[C@H]1C(=O)N[C@@H](CO)C(N)=O)C(C)C [Example 9] (H-Y[dA]EGTFISDYSILLDKK([AEEA-AEEA-γGlu-C20 diacid])HQ[Aib]DFVNWLLAQGPSSGAPPPS-NH2) | > 100 | > 230
CC[C@H](C)[C@H](NC(=O)[C@H](CO)NC(=O)[C@H](Cc1ccc(O)cc1)NC(=O)[C@H](CC(=O)O)NC(=O)[C@H](CO)NC(=O)[C@@H](NC(=O)[C@H](Cc1ccccc1)NC(=O)[C@@H](NC(=O)CNC(=O)[C@H](CCC(=O)O)NC(=O)[C@@H](C)NC(=O)[C@@H](N)Cc1ccc(O)cc1)[C@@H](C)O)[C@@H](C)CC)C(=O)N[C@@H](CC(C)C)C(=O)N[C@@H](CC(C)C)C(=O)N[C@@H](CC(=O)O)C(=O)N[C@@H](CCCCN)C(=O)N[C@@H](CCCCNC(=O)COCCOCCNC(=O)COCCOCCNC(=O)CC[C@H](NC(=O)CCCCCCCCCCCCCCCCCCC(=O)O)C(=O)O)C(=O)N[C@@H](Cc1c[nH]cn1)C(=O)N[C@@H](CCC(N)=O)C(=O)N[C@@H](CCC(N)=O)C(=O)N[C@@H](CC(=O)O)C(=O)N[C@@H](Cc1ccccc1)C(=O)N[C@H](C(=O)N[C@@H](CC(N)=O)C(=O)N[C@@H](Cc1c[nH]c2ccccc12)C(=O)N[C@@H](CC(C)C)C(=O)N[C@@H](CC(C)C)C(=O)N[C@@H](C)C(=O)NCC(=O)NCC(=O)N1CCC[C@H]1C(=O)N[C@@H](CO)C(=O)N[C@@H](CO)C(=O)NCC(=O)N[C@@H](C)C(=O)N1CCC[C@H]1C(=O)N1CCC[C@H]1C(=O)N1CCC[C@H]1C(=O)N[C@@H](CO)C(N)=O)C(C)C [Example 10] (H-Y[dA]EGTFISDYSILLDKK([AEEA-AEEA-γGlu-C20 diacid])HQQDFVNWLLAGGPSSGAPPPS-NH2) | > 100 | > 230
CC[C@H](C)[C@H](NC(=O)[C@H](CO)NC(=O)[C@H](Cc1ccc(O)cc1)NC(=O)[C@H](CC(=O)O)NC(=O)[C@H](CO)NC(=O)[C@@H](NC(=O)[C@H](Cc1ccccc1)NC(=O)[C@@H](NC(=O)CNC(=O)[C@H](CCC(=O)O)NC(=O)[C@@H](C)NC(=O)[C@@H](N)Cc1ccc(O)cc1)[C@@H](C)O)[C@@H](C)CC)C(=O)N[C@@H](CC(C)C)C(=O)N[C@@H](CC(C)C)C(=O)N[C@@H](CC(=O)O)C(=O)N[C@@H](CCCCN)C(=O)N[C@@H](CCCCNC(=O)COCCOCCNC(=O)COCCOCCNC(=O)CC[C@H](NC(=O)CCCCCCCCCCCCCCCCCCC(=O)O)C(=O)O)C(=O)N[C@@H](C)C(=O)N[C@@H](CCC(N)=O)C(=O)N[C@@H](CCC(N)=O)C(=O)N[C@@H](CC(=O)O)C(=O)N[C@@H](Cc1ccccc1)C(=O)N[C@H](C(=O)N[C@@H](CC(N)=O)C(=O)N[C@@H](Cc1c[nH]c2ccccc12)C(=O)N[C@@H](CC(C)C)C(=O)N[C@@H](CC(C)C)C(=O)N[C@@H](C)C(=O)N[C@@H](CCC(N)=O)C(=O)NCC(=O)N1CCC[C@H]1C(=O)N[C@@H](CO)C(=O)N[C@@H](CO)C(=O)NCC(=O)N[C@@H](C)C(=O)N1CCC[C@H]1C(=O)N1CCC[C@H]1C(=O)N1CCC[C@H]1C(=O)N[C@@H](CO)C(N)=O)C(C)C [Example 11] (H-Y[dA]EGTFISDYSILLDKK([AEEA-AEEA-γGlu-C20 diacid])AQQDFVNWLLAQGPSSGAPPPS-NH2) | > 100 | 163
CC[C@H](C)[C@H](NC(=O)[C@H](CO)NC(=O)[C@H](Cc1ccc(O)cc1)NC(=O)[C@H](CC(=O)O)NC(=O)[C@H](CO)NC(=O)[C@@H](NC(=O)[C@H](Cc1ccccc1)NC(=O)[C@@H](NC(=O)CNC(=O)[C@H](CCC(=O)O)NC(=O)[C@@H](C)NC(=O)[C@@H](N)Cc1ccc(O)cc1)[C@@H](C)O)[C@@H](C)CC)C(=O)N[C@@H](CC(C)C)C(=O)N[C@@H](CC(C)C)C(=O)N[C@@H](CC(=O)O)C(=O)N[C@@H](CCCCN)C(=O)N[C@@H](CCCCNC(=O)COCCOCCNC(=O)COCCOCCNC(=O)CC[C@H](NC(=O)CCCCCCCCCCCCCCCCCCC(=O)O)C(=O)O)C(=O)N[C@@H](C)C(=O)N[C@@H](CCC(N)=O)C(=O)N[C@@H](CCC(N)=O)C(=O)N[C@@H](CC(=O)O)C(=O)N[C@@H](Cc1ccccc1)C(=O)N[C@H](C(=O)N[C@@H](CC(N)=O)C(=O)N[C@@H](Cc1c[nH]c2ccccc12)C(=O)N[C@@H](CC(C)C)C(=O)N[C@@H](CC(C)C)C(=O)N[C@@H](C)C(=O)NCC(=O)NCC(=O)N1CCC[C@H]1C(=O)N[C@@H](CO)C(=O)N[C@@H](CO)C(=O)NCC(=O)N[C@@H](C)C(=O)N1CCC[C@H]1C(=O)N1CCC[C@H]1C(=O)N1CCC[C@H]1C(=O)N[C@@H](CO)C(N)=O)C(C)C [Example 12] (H-Y[dA]EGTFISDYSILLDKK([AEEA-AEEA-γGlu-C20 diacid])AQQDFVNWLLAGGPSSGAPPPS-NH2) | > 100 | 134
CC[C@H](C)[C@H](NC(=O)[C@H](CO)NC(=O)[C@H](Cc1ccc(O)cc1)NC(=O)[C@H](CC(=O)O)NC(=O)[C@H](CO)NC(=O)[C@@H](NC(=O)[C@H](Cc1ccccc1)NC(=O)[C@@H](NC(=O)CNC(=O)[C@H](CCC(=O)O)NC(=O)[C@@H](C)NC(=O)[C@@H](N)Cc1ccc(O)cc1)[C@@H](C)O)[C@@H](C)CC)C(=O)N[C@@H](CC(C)C)C(=O)N[C@@H](CC(C)C)C(=O)N[C@@H](CC(=O)O)C(=O)N[C@@H](CCCCN)C(=O)N[C@@H](CCCCNC(=O)COCCOCCNC(=O)COCCOCCNC(=O)CC[C@H](NC(=O)CCCCCCCCCCCCCCCCCCC(=O)O)C(=O)O)C(=O)N[C@@H](Cc1c[nH]cn1)C(=O)N[C@@H](CCC(N)=O)C(=O)N[C@@H](CCC(N)=O)C(=O)N[C@@H](CCC(=O)O)C(=O)N[C@@H](Cc1ccccc1)C(=O)N[C@H](C(=O)N[C@@H](CC(N)=O)C(=O)N[C@@H](Cc1c[nH]c2ccccc12)C(=O)N[C@@H](CC(C)C)C(=O)N[C@@H](CC(C)C)C(=O)N[C@@H](C)C(=O)N[C@@H](CCC(N)=O)C(=O)NCC(=O)N1CCC[C@H]1C(=O)N[C@@H](CO)C(=O)N[C@@H](CO)C(=O)NCC(=O)N[C@@H](C)C(=O)N1CCC[C@H]1C(=O)N1CCC[C@H]1C(=O)N1CCC[C@H]1C(=O)N[C@@H](CO)C(N)=O)C(C)C [Example 13] (H-Y[dA]EGTFISDYSILLDKK([AEEA-AEEA-γGlu-C20 diacid])HQQEFVNWLLAQGPSSGAPPPS-NH2) | > 100 | > 230
